Measurements reported in patent US20240174690A1, “ANNULATED 2-AMINO-3-CYANO THIOPHENES AND DERIVATIVES FOR THE TREATMENT OF CANCER” (BOEHRINGER INGELHEIM INTERNATIONAL GMBH, priority 2021, published 2024).
≈ marks a conversion by molar mass, not a printed value. Like-named read-outs stand apart in the source and are kept apart here.

Legend:
NCI-H2122 cells = test: NCI-H2122 CTG proliferation assay (120 h) (NSCLC, G12C); assay type: cell-based; conditions: Homo sapiens
Outline: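 NCI-H2122 cells (KRAS G12C NSCLC), 200 per well in RPMI with 10% FCS, were dosed with compound on day 1 and incubated 120 h at 37 °C. Viability was read by CellTiter-Glo luminescence as percent of DMSO control, and IC50 was fitted with a four-parameter model.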

[1] = Solubility measurement (DMSO solution method), McIlvaine buffer pH 4.5 or 6.8; assay type: physicochemical; conditions: aqueous buffer, kinetic from dmso stock, DMSO stock diluted to 250 μM, 24 h shaking at ambient temperature
Outline: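 DMSO stock diluted into McIlvaine buffer, pH 4.5 or 6.8, to 250 µM final, shaken 24 h at ambient temperature. Precipitate removed by filtration; filtrate quantified by LC-UV against a fully dissolved reference in acetonitrile/water 1:1.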

[2] = Plasma protein binding assay (PPB), equilibrium dialysis, 10% FCS in PBS; assay type: in vitro ADME; conditions: bovine, read-out: PPB 10% FCS (% fu)
Outline: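 Equilibrium dialysis (5-10 kg/mol cut-off membrane) of 1-10 μmol/L test compound in 10% FCS/PBS against PBS with or without dextran, 3-5 h at 37° C. Compound in each chamber quantified by LC-MS after protein precipitation; fu calculated from Cserum and Cbuffer.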

SK-CO-1 cells = test: SK-CO-1 CTG proliferation assay (120 h) (CRC, G12V); assay type: cell-based; conditions: Homo sapiens; SK-CO-1 cells (CRC, G12V), CTG 120 h
Outline: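 SK-CO-1 colorectal cells (KRAS G12V), 500 per well in EMEM + 10% FCS, dosed with compound the day after seeding and grown 120 h at 37 °C. Viability by CellTiter-Glo luminescence as percent of DMSO control; IC50 from four-parameter non-linear regression.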

NCI-H358 cells = test: NCI-H358 CTG proliferation assay (120 h) (NSCLC, G12C); assay type: cell-based, human; conditions: Homo sapiens
Outline: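 NCI-H358 cells (KRAS G12C) were seeded at 2000/well (assay 1) or 200/well (assay 2) in RPMI-1640 + 10% FCS and dosed with a logarithmic series, DMSO-normalized. After 120 h, viability was read by CellTiter-Glo luminescence as percent of DMSO control, with a T0 read at dosing. IC50 came from a four-parameter fit.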

[3] = system: KRAS G12V-dependent Ba/F3 cells; test: Ba/F3 proliferation assay, KRAS G12V; assay type: cell-based; conditions: Mus musculus, BaF3, 72 h, AlamarBlue;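 note: proliferation IC50 in KRAS G12V-dependent Ba/F3 cells read by AlamarBlue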
Outline: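 Ba/F3 cells were retrovirally transduced with KRAS G12 mutant vectors, puromycin-selected (1 μg/mL) and grown without IL-3 to make them KRAS-dependent. Compounds were tested in technical duplicates, viability was read by AlamarBlue fluorescence, and values came from curve fitting.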

[4] = McIlvaine buffer pH 4.5, read-out: solubility pH 4.5
[5] = McIlvaine buffer pH 6.8, read-out: solubility pH 6.8
[6] = assay 2, CTG, read-out: H358 (assay 2) IC50

IC50 (NCI-H2122 cells) | solubility at 24 h [1, 4] | solubility at 24 h [1, 5] | fraction unbound [2] | IC50 (SK-CO-1 cells) | IC50 (NCI-H358 cells; [6]) | IC50 [3] | IC50 (NCI-H358 cells; assay 1, CTG, read-out: H358 (assay 1) IC50) | SMILES
2560 nM | > 138 µg/mL | > 133 µg/mL | 0.39 | 772 nM | 3360 nM | 693 nM |  | C[C@H](Oc1cc(N2CCNC[C@@]23CCOC3)nc(-c2noc3c2CCC[C@@]32CCCc3sc(N)c(C#N)c32)n1)[C@@H]1CCCN1C [II-51]
2250 nM | > 146 µg/mL | 89 µg/mL (≈ 145 µM) | 0.1 | 71 nM | 9 nM | 21 nM |  | C[C@H](Oc1cc(N2CCCC3(COC3)C2)nc(-c2noc3c2CCC[C@@]32CCCc3sc(N)c(C#N)c32)n1)[C@@H]1CCCN1C [II-72]
661 nM | > 173 µg/mL | 107 µg/mL (≈ 168 µM) | 0.39 | 64 nM | 128 nM | 33 nM |  | C[C@H](Oc1cc(-n2cc(Cn3ccnc3)nn2)nc(-c2noc3c2CCC[C@@]32CCCc3sc(N)c(C#N)c32)n1)[C@@H]1CCCN1C [II-113]
197 nM | > 139 µg/mL | 121 µg/mL (≈ 197 µM) | 0.41 | 34 nM | 141 nM | 6 nM |  | C[C@H](O)Cn1ccc(-c2cc(O[C@@H](C)[C@@H]3CCCN3C)nc(-c3noc4c3CCC[C@@]43CCCc4sc(N)c(C#N)c43)n2)n1 [II-112]
2020 nM | 40 µg/mL (≈ 67 µM) | < 1 µg/mL | 0.13 | 212 nM | 242 nM | 26 nM |  | C[C@H](Oc1cc(-c2cccc(CO)c2)nc(-c2noc3c2CCC[C@@]32CCCc3sc(N)c(C#N)c32)n1)[C@@H]1CCCN1C [II-97]
891 nM | 109 µg/mL (≈ 195 µM) | 94 µg/mL (≈ 169 µM) | 0.44 | 28 nM | 131 nM | 5 nM |  | C[C@H](Oc1cc(-n2cncn2)nc(-c2noc3c2CCC[C@@]32CCCc3sc(N)c(C#N)c32)n1)[C@@H]1CCCN1C [II-70]
953 nM | 3 µg/mL (≈ 4.72 µM) | < 1 µg/mL | 0.01 | 126 nM | 217 nM | 13 nM |  | C[C@H](Oc1cc(-n2ccc(Br)n2)nc(-c2noc3c2CCC[C@@]32CCCc3sc(N)c(C#N)c32)n1)[C@@H]1CCCN1C [II-110]
901 nM | > 148 µg/mL | 108 µg/mL (≈ 169 µM) | 0.4 | 38 nM | 114 nM | 12 nM |  | C[C@H](Oc1cc(-n2cc(Cn3cncn3)nn2)nc(-c2noc3c2CCC[C@@]32CCCc3sc(N)c(C#N)c32)n1)[C@@H]1CCCN1C [II-124]
1120 nM | 38 µg/mL (≈ 66.9 µM) | 3 µg/mL (≈ 5.28 µM) | 0.08 | 51 nM | 23 nM | 8 nM |  | C[C@H](Oc1cc(-c2ccccn2)nc(-c2noc3c2CCC[C@@]32CCCc3sc(N)c(C#N)c32)n1)[C@@H]1CCCN1C [II-85]
1560 nM | 97 µg/mL (≈ 164 µM) | 20 µg/mL (≈ 33.8 µM) | 0.05 | 140 nM | 872 nM | 45 nM |  | C[C@H](Oc1cc(-n2ccnc2Cl)nc(-c2noc3c2CCC[C@@]32CCCc3sc(N)c(C#N)c32)n1)[C@@H]1CCCN1C [II-93]
933 nM | > 112 µg/mL | 82 µg/mL (≈ 147 µM) | 0.59 | 18 nM | 209 nM | 8 nM |  | C[C@H](Oc1cc(-c2cc[nH]n2)nc(-c2noc3c2CCC[C@@]32CCCc3sc(N)c(C#N)c32)n1)[C@@H]1CCCN1C [II-71]
6360 nM | 40 µg/mL (≈ 69.6 µM) | 8 µg/mL (≈ 13.9 µM) | 0.23 | 24 nM |  | 5 nM | 36 nM | C[C@H](Oc1cc(N2CCNC2=O)nc(-c2noc3c2CCC[C@@]32CCCc3sc(N)c(C#N)c32)n1)[C@@H]1CCCN1C [II-64]
